Assay results as given in patent US11207325B2, “Triazolopyrimidine compounds and uses thereof” (Novartis AG, priority 2014, dated 2021).

System: H3K27 methylation in G401 cell
Assay: ELISA (H3K27 methylation) assay
Format: cell-based
Conditions: Homo sapiens, G-401; ELISA Qualified assay (H3K27 methylation); read-out: (c) IC50 (μM), ELISA Qualified
Source text: ELISA (H3K27 Methylation) Assay

SMILES | IC50
Fc1ccc2c(c1CNc1ncc(-c3cnn(C4CC4)c3)c3nncn13)CCO2 [Example 150, 8-(1-cyclopropyl-1H-pyrazol-4-yl)-N-((5-fluoro-2,3-dihydrobenzofuran-4-yl)methyl)-[1,2,4]triazolo[4,3-c]pyrimidin-5-amine] | 0.0148 µM
NC(=O)c1ccccc1-c1cnc(NCc2c(F)ccc3c2CCO3)n2cnnc12 [Example 122, 2-(5-(((5-fluoro-2,3-dihydrobenzofuran-4-yl)methyl)amino)-[1,2,4]triazolo[4,3-c]pyrimidin-8-yl)benzamide] | 0.135 µM
O=C(c1ccc(-c2cnc(NCc3cccc4c3CCO4)n3cnnc23)cn1)N1CCCC1 [Example 80, (5-(5-(((2,3-dihydrobenzofuran-4-yl)methyl)amino)-[1,2,4]triazolo[4,3-c]pyrimidin-8-yl)pyridin-2-yl)(pyrrolidin-1-yl)methanone] | 0.132 µM
OCCN1CCN(c2ccc(-c3cnc(NCc4cccc5c4CCO5)n4cnnc34)cn2)CC1 [Example 110, 2-(4-(5-(5-(((2,3-dihydrobenzofuran-4-yl)methyl)amino)-[1,2,4]triazolo[4,3-c]pyrimidin-8-yl)pyridin-2-yl)piperazin-1-yl)ethanol] | 0.124 µM
CCn1nccc1-c1cnc(NCc2c(F)ccc3c2CCO3)n2cnnc12 [Example 143, 8-(1-ethyl-1H-pyrazol-5-yl)-N-((5-fluoro-2,3-dihydrobenzofuran-4-yl)methyl)-[1,2,4]triazolo[4,3-c]pyrimidin-5-amine] | 0.0106 µM
CC(c1ccc(-c2cnc(NCc3cccc4c3CCO4)n3cnnc23)cc1)N1CCCC1 (centres unmarked) [Example 14, N-((2,3-dihydrobenzofuran-4-yl)methyl)-8-(4-(1-(pyrrolidin-1-yl)ethyl)phenyl)-[1,2,4]triazolo[4,3-c]pyrimidin-5-amine] | 0.0274 µM
Cc1c(-c2cnc(NCc3c(F)ccc4c3CCO4)n3cnnc23)ccnc1C(F)F [Example 181, 8-(2-(difluoromethyl)-3-methylpyridin-4-yl)-N-((5-fluoro-2,3-dihydrobenzofuran-4-yl)methyl)-[1,2,4]triazolo[4,3-c]pyrimidin-5-amine] | 0.0208 µM
CN(C)Cc1ccc(-c2cnc(NCc3c(F)ccc4occc34)n3cnnc23)cc1 [Example 219, 8-(4-((dimethylamino)methyl)phenyl)-N-((5-fluorobenzofuran-4-yl)methyl)-[1,2,4]triazolo[4,3-c]pyrimidin-5-amine] | 0.0079 µM
Cc1noc(C)c1-c1cnc(NCc2c(F)ccc3c2CCO3)n2cnnc12 [Example 71, 8-(3,5-dimethylisoxazol-4-yl)-N-((5-fluoro-2,3-dihydrobenzofuran-4-yl)methyl)-[1,2,4]triazolo[4,3-c]pyrimidin-5-amine] | 0.0426 µM
N#Cc1ccc(-c2cnc(NCc3cccc4c3CCO4)n3cnnc23)cn1 [Example 62, 5-(5-(((2,3-dihydrobenzofuran-4-yl)methyl)amino)-[1,2,4]triazolo[4,3-c]pyrimidin-8-yl)picolinonitrile] | 0.339 µM
Fc1ccccc1-c1cnc(NCc2cccc3c2CCO3)n2cnnc12 [Example 31, N-((2,3-dihydrobenzofuran-4-yl)methyl)-8-(2-fluorophenyl)-[1,2,4]triazolo[4,3-c]pyrimidin-5-amine] | 0.0298 µM
Cc1ncn(-c2cnc(NCc3c(F)ccc4c3CCO4)n3cnnc23)n1 [Example 238, N-((5-fluoro-2,3-dihydrobenzofuran-4-yl)methyl)-8-(3-methyl-1H-1,2,4-triazol-1-yl)-[1,2,4]triazolo[4,3-c]pyrimidin-5-amine] | 0.0179 µM
CCOc1cc(C)c(-c2cnc(NCc3c(F)ccc4c3CCO4)n3cnnc23)cn1 [Example 196, 8-(6-ethoxy-4-methylpyridin-3-yl)-N-((5-fluoro-2,3-dihydrobenzofuran-4-yl)methyl)-[1,2,4]triazolo[4,3-c]pyrimidin-5-amine] | 0.0263 µM
Nc1ccncc1-c1cnc(NCc2cccc3c2CCO3)n2cnnc12 [Example 76, 8-(4-aminopyridin-3-yl)-N-((2,3-dihydrobenzofuran-4-yl)methyl)-[1,2,4]triazolo[4,3-c]pyrimidin-5-amine] | 0.32 µM
